± gives the standard deviation of the averaged measurements.
How the values were obtained:
EVEROLIMUS = compound: CO[C@H]1C[C@@H]2CC[C@@H](C)[C@@](O)(O2)C(=O)C(=O)N2CCCC[C@H]2C(=O)O[C@H]([C@H](C)C[C@@H]2CC[C@@H](OCCO)[C@H](OC)C2)CC(=O)[C@H](C)/C=C(\C)[C@@H](O)[C@@H](OC)C(=O)[C@H](C)C[C@H](C)/C=C/C=C/C=C/1C [EVEROLIMUS]; experiment: surviving fraction relative to DMSO-only wells; higher = less growth inhibition; conditions: exposure time: 5 days
Outline: (§1)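 Lines were retained only if, across three screens, replicate Pearson r was >0.7 and median Z' was >0.3. Viability was measured as CellTiter-Glo luminescence and reported as surviving fraction relative to the median of DMSO-only wells. Readings followed 10 minutes at room temperature, after log-phase tumour cells seeded at 250–500 per well in 384-well plates had been exposed, from 24 hours after seeding, continuously for five days to inhibitors at 0.5, 1, 5, 10, 50, 100, 500 and 1000 nM.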

MK0752 = compound: O=C(O)CC[C@H]1CC[C@@](c2cc(F)ccc2F)(S(=O)(=O)c2ccc(Cl)cc2)CC1 [MK0752]; experiment: as above; conditions: exposure time: 5 days
Outline: as §1

Row | Test System | surviving fraction (EVEROLIMUS; 0.5 nM) | surviving fraction (EVEROLIMUS; 1 nM) | surviving fraction (EVEROLIMUS; 5 nM) | surviving fraction (EVEROLIMUS; 10 nM) | surviving fraction (EVEROLIMUS; 50 nM) | surviving fraction (EVEROLIMUS; 100 nM) | surviving fraction (EVEROLIMUS; 500 nM) | surviving fraction (EVEROLIMUS; 1000 nM) | surviving fraction (MK0752; 0.5 nM) | surviving fraction (MK0752; 1 nM) | surviving fraction (MK0752; 5 nM) | surviving fraction (MK0752; 10 nM) | surviving fraction (MK0752; 50 nM) | surviving fraction (MK0752; 100 nM) | surviving fraction (MK0752; 500 nM) | surviving fraction (MK0752; 1000 nM)
1 | HOSMNG BONE | 1.03 ± 0.013 | 0.95 ± 0.051 | 0.951 ± 0.11 | 0.979 ± 0.07 | 1 ± 0.07 | 1.05 ± 0.1 | 0.999 ± 0.085 | 1.03 ± 0.027 | 0.936 ± 0.023 | 1.02 ± 0.037 | 0.959 ± 0.052 | 0.981 ± 0.046 | 1.05 ± 0.028 | 1.05 ± 0.029 | 1.06 ± 0.061 | 1.04 ± 0.024
2 | HS57T BREAST | 0.614 ± 0.029 | 0.535 ± 0.0078 | 0.497 ± 0.031 | 0.445 ± 0.016 | 0.447 ± 0.024 | 0.44 ± 0.042 | 0.373 ± 0.024 | 0.387 ± 0.045 | 1.09 ± 0.048 | 1.09 ± 0.059 | 1.18 ± 0.061 | 1.14 ± 0.1 | 1.13 ± 0.048 | 1.19 ± 0.077 | 1.02 ± 0.038 | 1.01 ± 0.046
3 | HS578T BREAST | 0.6 ± 0.095 | 0.598 ± 0.019 | 0.527 ± 0.047 | 0.524 ± 0.042 | 0.563 ± 0.08 | 0.545 ± 0.048 | 0.471 ± 0.044 | 0.468 ± 0.017 | 1.02 ± 0.061 | 0.87 ± 0.15 | 0.883 ± 0.11 | 1.01 ± 0.11 | 0.946 ± 0.046 | 0.9 ± 0.056 | 0.833 ± 0.11 | 0.936 ± 0.12
4 | HSSYII SYNOVIAL | 0.781 ± 0.043 | 0.711 ± 0.066 | 0.616 ± 0.018 | 0.566 ± 0.025 | 0.476 ± 0.011 | 0.462 ± 0.025 | 0.416 ± 0.051 | 0.3632 ± 0.0025 | 0.985 ± 0.056 | 1 ± 0.056 | 1.03 ± 0.063 | 1.02 ± 0.059 | 1.018 ± 0.0035 | 1.01 ± 0.017 | 0.978 ± 0.029 | 0.955 ± 0.046
5 | HT1080 SOFT TISSUE | 1.04 ± 0.029 | 0.991 ± 0.013 | 0.733 ± 0.039 | 0.577 ± 0.045 | 0.496 ± 0.019 | 0.48 ± 0.029 | 0.477 ± 0.036 | 0.477 ± 0.036 | 0.997 ± 0.018 | 1.02 ± 0.034 | 1.04 ± 0.026 | 1 ± 0.051 | 0.948 ± 0.019 | 1.02 ± 0.04 | 0.984 ± 0.0089 | 0.989 ± 0.029
6 | HU09 BONE | 0.669 ± 0.016 | 0.602 ± 0.037 | 0.513 ± 0.0057 | 0.512 ± 0.048 | 0.49 ± 0.011 | 0.42 ± 0.011 | 0.382 ± 0.016 | 0.39 ± 0.023 | 0.995 ± 0.11 | 1.06 ± 0.052 | 1.11 ± 0.052 | 1.181 ± 0.0032 | 1.12 ± 0.069 | 1.06 ± 0.088 | 0.984 ± 0.14 | 1.03 ± 0.063
7 | JIMT1 BREAST | 0.752 ± 0.021 | 0.663 ± 0.014 | 0.571 ± 0.034 | 0.561 ± 0.022 | 0.56 ± 0.034 | 0.55 ± 0.03 | 0.5 ± 0.016 | 0.494 ± 0.036 | 0.966 ± 0.0054 | 0.988 ± 0.018 | 0.997 ± 0.042 | 0.97 ± 0.042 | 0.984 ± 0.021 | 1.04 ± 0.036 | 0.939 ± 0.021 | 0.997 ± 0.018
8 | JURKAT HAEMATOPOIETIC AND LYMPHOID TISSUE | 0.988 ± 0.023 | 0.917 ± 0.041 | 0.572 ± 0.0079 | 0.557 ± 0.033 | 0.433 ± 0.029 | 0.396 ± 0.034 | 0.326 ± 0.021 | 0.275 ± 0.018 | 1.06 ± 0.026 | 1.07 ± 0.021 | 1.07 ± 0.012 | 1.02 ± 0.051 | 1.04 ± 0.017 | 1.01 ± 0.026 | 0.988 ± 0.04 | 0.976 ± 0.023
9 | KPD BONE | 0.603 ± 0.044 | 0.529 ± 0.026 | 0.457 ± 0.016 | 0.422 ± 0.019 | 0.408 ± 0.025 | 0.384 ± 0.017 | 0.343 ± 0.012 | 0.338 ± 0.02 | 0.998 ± 0.054 | 0.986 ± 0.046 | 1.12 ± 0.042 | 1.05 ± 0.035 | 1.053 ± 0.0087 | 1.1 ± 0.073 | 0.951 ± 0.067 | 0.915 ± 0.06
10 | LM7 BONE | 0.934 ± 0.053 | 0.87 ± 0.056 | 0.803 ± 0.1 | 0.785 ± 0.12 | 0.77 ± 0.085 | 0.752 ± 0.046 | 0.674 ± 0.087 | 0.609 ± 0.044 | 0.915 ± 0.045 | 0.93 ± 0.078 | 1.08 ± 0.096 | 0.996 ± 0.098 | 1.03 ± 0.035 | 1.05 ± 0.048 | 0.937 ± 0.11 | 0.945 ± 0.063
